Test results as given in ChEMBL document CHEMBL4004852, “Pharmacophore Mapping of Thienopyrimidine-Based Monophosphonate (ThP-MP) Inhibitors of the Human Farnesyl Pyrophosphate Synthase” (J Med Chem, 2017).
pIC50: −log10 of the molar value.

Target: T1, Farnesyl pyrophosphate synthase (Homo sapiens, UniProt P14324)
T1 sequence (P14324 whole entry): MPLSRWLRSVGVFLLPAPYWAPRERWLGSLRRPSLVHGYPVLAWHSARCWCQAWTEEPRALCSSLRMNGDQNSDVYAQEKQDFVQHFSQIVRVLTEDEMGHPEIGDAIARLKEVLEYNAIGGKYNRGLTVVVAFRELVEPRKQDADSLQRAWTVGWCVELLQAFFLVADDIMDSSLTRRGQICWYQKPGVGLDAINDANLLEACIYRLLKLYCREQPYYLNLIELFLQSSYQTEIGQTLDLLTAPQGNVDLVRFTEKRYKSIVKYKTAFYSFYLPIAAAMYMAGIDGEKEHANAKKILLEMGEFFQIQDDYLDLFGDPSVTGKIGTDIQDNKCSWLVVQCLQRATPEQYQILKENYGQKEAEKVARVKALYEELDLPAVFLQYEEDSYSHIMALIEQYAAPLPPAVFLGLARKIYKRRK
Experiment: Inhibition of N-terminal His-tagged human recombinant FPPS expressed in Escherichia coli BL21 (DE3) using GPP and [3H]-IPP as substrate preincubated for 10 mins before substrate addition measured after 8 mins by liquid scintillation counting

For `Cc1ccc(-c2cc3c(NCP(=O)(O)O)ncnc3s2)cc1`, the pIC50 was 5.30.
`Cc1ccc(-c2cc3c(NC(c4ccccc4)P(=O)(O)O)ncnc3s2)cc1Cl` (stereo unspecified) showed a pIC50 of 5.80.
`Cc1ccc(-c2sc3ncnc4c3c2COP(=O)(O)CCC4)cc1` was tested, and the pIC50 was at most 4.00.
`Cc1ccc(-c2cc3c(NC(Cc4cccc(F)c4)P(=O)(O)O)ncnc3s2)cc1Cl` (stereo unspecified) was tested, and the pIC50 was 6.07.
Work on `Cc1ccc(-c2cc3c(NC(Cc4cccc(F)c4)P(=O)(O)O)ncnc3s2)cc1F` (stereo unspecified) yielded a pIC50 of 5.82.
In the case of `COc1cc(C)c(Cl)cc1-c1cc2c(NCP(=O)(O)O)ncnc2s1`, the pIC50 was 5.06.
`Cc1ccc(-c2cc3c(NC(c4ccccc4)P(=O)(O)O)ncnc3s2)cc1` (stereo unspecified) showed a pIC50 of 5.32.
In the case of `COc1cc(C)c(Cl)cc1-c1cc2c(NC(Cc3ccccc3)P(=O)(O)O)ncnc2s1` (stereo unspecified), the pIC50 was 5.34.
For `COc1cc(C)c(F)cc1-c1cc2c(NC(Cc3cccc(F)c3)P(=O)(O)O)ncnc2s1` (stereo unspecified), the pIC50 was 6.06.
`Cc1ccc(-c2cc3c(NC(c4ccc5c(c4)CCO5)P(=O)(O)O)ncnc3s2)cc1` (stereo unspecified) showed a pIC50 of 5.52.
`Cc1ccc(-c2cc3c(NC(Cc4ccccc4)P(=O)(O)O)ncnc3s2)cc1` (stereo unspecified) showed a pIC50 of 5.85.
`O=P(O)(O)CNc1ncnc2sccc12` gave a pIC50 of under 4.00.
`Cc1ccc(-c2sc3ncnc(NC(Cc4ccccc4)P(=O)(O)O)c3c2C)cc1` (stereo unspecified) showed a pIC50 of 5.59.
In the case of `Cc1ccc(-c2cc3c(NC(CC4CCC4)P(=O)(O)O)ncnc3s2)cc1` (stereo unspecified), the pIC50 was 5.55.
With `COc1ccc(F)cc1-c1cc2c(NC(Cc3cccc(F)c3)P(=O)(O)O)ncnc2s1` (stereo unspecified) the pIC50 was 6.00.
`Cc1ccc(-c2cc3c(NC(Cc4ccccc4)P(=O)(O)O)ncnc3s2)cc1Cl` (stereo unspecified) was tested, and the pIC50 was 5.64.
For `COc1cc(C)c(Cl)cc1-c1cc2c(NC(c3ccccc3)P(=O)(O)O)ncnc2s1` (stereo unspecified), the pIC50 was 5.08.
Molecule `Cc1ccc(-c2cc3c(N[C@@H](Cc4ccccc4)P(=O)(O)O)ncnc3s2)cc1` has a pIC50 of 5.40.
`Cc1ccc(-c2cc3c(NC(Cc4cccc(F)c4)P(=O)(O)O)ncnc3s2)cc1` (stereo unspecified) was tested, and the pIC50 was 5.96.
`COc1cc(C)c(F)cc1-c1cc2c(NCP(=O)(O)O)ncnc2s1` showed a pIC50 of 5.34.
`Cc1ccc(-c2sc3ncncc3c2CP(=O)(O)O)cc1` gave a pIC50 of at most 4.00.
For `Cc1ccc(-c2cc3c(N[C@@H](Cc4ccccc4)C(=O)NP(=O)(O)O)ncnc3s2)cc1`, the pIC50 was 5.43.
With `COc1cc(C)c(F)cc1-c1cc2c(NC(Cc3ccccc3)P(=O)(O)O)ncnc2s1` (stereo unspecified) the pIC50 was 5.80.
`Cc1ccc(-c2sc3ncnc(NCP(=O)(O)O)c3c2C)cc1` was tested, and the pIC50 was 5.00.
Molecule `Cc1ccc(-c2cc3c(N[C@H](Cc4ccccc4)P(=O)(O)O)ncnc3s2)cc1` has a pIC50 of 6.00.
`Cc1ccc(-c2cc3c(NC(CC4CCCCC4)P(=O)(O)O)ncnc3s2)cc1` (stereo unspecified) was tested, and the pIC50 was 5.80.
